From article PMC12281477, “Live-Cell NanoBRET Assay to Measure AKT Inhibitor Binding to Conformational States of AKT” (ACS Chemical Biology, 2025)
Values belong to the compound of their own block, whether it stands above or below them.

Columns and labels:
[1] = target: T1, AKT3-NL (Homo sapiens, UniProt Q9Y243); experiment: Live-cell steady-state NanoBRET target engagement assay, AKT3-NL
[2] = test system: MDA-MB-231 cells; experiment: Resazurin cell viability assay, MDA-MB-231; type: cell-based; conditions: Homo sapiens, MDA-MB-231, 120 h, 5 days, ± SEM, n = 3
[3] = test system: MDA-MB-468 cells; experiment: Resazurin cell viability assay, MDA-MB-468; type: cell-based; conditions: Homo sapiens, MDA-MB-468, 120 h, 5 days, ± SEM, n = 3
[4] = target: T2, AKT1-NL (Homo sapiens, UniProt P31749); experiment: Bioluminescent imaging of AKT1-NL localization in HEK293T cells; type: cell-based; conditions: 2 h treatment, compared to DMSO
T2 construct: full-length versions of AKT1, AKT2, and AKT3, were separately subcloned into pNLF1-N or pNLF1-C vectors; expressed in transfected cells; host or cells: HEK293T
T2 sequence (P31749 whole entry): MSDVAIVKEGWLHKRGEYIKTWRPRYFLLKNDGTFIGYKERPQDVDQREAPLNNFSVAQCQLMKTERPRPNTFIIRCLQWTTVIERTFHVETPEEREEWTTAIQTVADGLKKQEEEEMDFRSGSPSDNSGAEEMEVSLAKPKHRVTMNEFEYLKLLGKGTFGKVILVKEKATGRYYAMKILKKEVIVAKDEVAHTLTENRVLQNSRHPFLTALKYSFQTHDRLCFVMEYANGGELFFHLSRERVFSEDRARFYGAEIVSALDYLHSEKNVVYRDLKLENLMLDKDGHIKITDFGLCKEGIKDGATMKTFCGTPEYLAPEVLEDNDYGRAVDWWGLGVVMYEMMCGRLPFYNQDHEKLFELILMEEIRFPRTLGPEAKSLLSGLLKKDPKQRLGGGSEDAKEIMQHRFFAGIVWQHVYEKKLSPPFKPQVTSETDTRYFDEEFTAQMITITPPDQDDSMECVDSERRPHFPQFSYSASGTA
Experimental: (§1) We also performed bioluminescent imaging on AKT1-NL, AKT2-NL, and AKT3-NL transfected into HEK293T cells treated individually with all AKT inhibitors for 2 h (Figure S1F). […] After incubation, 2 μL of NanoGlo substrate was added to each well and imaged using the GloMax Galaxy Bioluminescence Imager utilizing a 40× objective (Nikon CFI Plan Fluor- Material Number MRH01401) and exposure times ranging from 32 to 100 s. […] Images were processed in Fiji.

[5] = target: T1, AKT3-NL; experiment: Bioluminescent imaging of AKT3-NL localization in HEK293T cells; type: cell-based; design: full-length versions of AKT1, AKT2, and AKT3, were separately subcloned into pNLF1-N or pNLF1-C vectors; expressed in transfected cells; host or cells: HEK293T; conditions: 2 h treatment, compared to DMSO
Experimental: as §1

[6] = target: T3, Myr-AKT1-NL (Homo sapiens, UniProt P31749); experiment: NanoBRET target engagement assay, Myr-AKT1-NL; type: binding
T3 construct: host or cells: HEK293T
T3 sequence (P31749 whole entry): as above
From the text: It was puzzling to understand why ATP-competitive inhibitors bound more tightly to some pathological mutants. […] To achieve an active AKT population characterized by increased phosphorylation and membrane association, we created N-terminally myristoylated AKT1–3-NL constructs (Figure A). AKT myristoylation is commonly used to keep AKT membrane-associated and available for phosphorylation by PDK1 and mTORC2. , We decided to use myristoylation instead of treatment with a PI3K-AKT stimulating hormone such as IGF1 because of transient time-dependent effects on phosphorylation that complicates the reproducibility of our NanoBRET assay. , Bioluminescent imaging of Myr-AKT1-NL, Myr-AKT2-NL, and Myr-AKT3-NL constructs confirmed that each isoform was associated at the cell membrane (Figure S4A).
Statistics were performed in Origin 2023.

[7] = target: T2, AKT1-NL; experiment: Live-cell steady-state NanoBRET target engagement assay, AKT1-NL; type: binding
[8] = target: T4, PDK1-NL (Homo sapiens, UniProt O15530); experiment: NanoBRET competition assay using PDK1-NL; type: binding; conditions: ± SEM, n = 3 biological replicates; read-out: PDK1-NL calculated Ki
T4 sequence (O15530 1-556): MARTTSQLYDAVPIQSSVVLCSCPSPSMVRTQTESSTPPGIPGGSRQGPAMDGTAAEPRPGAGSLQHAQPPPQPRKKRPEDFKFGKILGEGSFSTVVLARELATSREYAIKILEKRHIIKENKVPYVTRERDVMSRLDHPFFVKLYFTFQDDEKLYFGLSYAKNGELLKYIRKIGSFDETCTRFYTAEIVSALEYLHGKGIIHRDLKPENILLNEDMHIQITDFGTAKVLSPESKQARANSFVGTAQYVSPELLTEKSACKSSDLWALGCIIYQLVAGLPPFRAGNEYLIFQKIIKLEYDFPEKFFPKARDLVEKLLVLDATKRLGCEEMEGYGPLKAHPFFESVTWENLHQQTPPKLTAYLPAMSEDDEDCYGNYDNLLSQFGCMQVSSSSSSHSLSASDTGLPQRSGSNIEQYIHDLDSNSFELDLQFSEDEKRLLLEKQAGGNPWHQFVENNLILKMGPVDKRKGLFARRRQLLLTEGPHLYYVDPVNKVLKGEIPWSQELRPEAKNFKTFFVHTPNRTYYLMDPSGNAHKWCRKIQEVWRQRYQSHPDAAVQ

[9] = target: T5, AKT3-E17K-NL (Homo sapiens, UniProt Q9Y243, E17K); experiment: NanoBRET competition assay, AKT3-E17K-NL; type: binding
T5 construct: full-length versions of AKT1, AKT2, and AKT3, were separately subcloned into pNLF1-N or pNLF1-C vectors; expressed in transfected cells
T5 sequence (Q9Y243 whole entry E17K): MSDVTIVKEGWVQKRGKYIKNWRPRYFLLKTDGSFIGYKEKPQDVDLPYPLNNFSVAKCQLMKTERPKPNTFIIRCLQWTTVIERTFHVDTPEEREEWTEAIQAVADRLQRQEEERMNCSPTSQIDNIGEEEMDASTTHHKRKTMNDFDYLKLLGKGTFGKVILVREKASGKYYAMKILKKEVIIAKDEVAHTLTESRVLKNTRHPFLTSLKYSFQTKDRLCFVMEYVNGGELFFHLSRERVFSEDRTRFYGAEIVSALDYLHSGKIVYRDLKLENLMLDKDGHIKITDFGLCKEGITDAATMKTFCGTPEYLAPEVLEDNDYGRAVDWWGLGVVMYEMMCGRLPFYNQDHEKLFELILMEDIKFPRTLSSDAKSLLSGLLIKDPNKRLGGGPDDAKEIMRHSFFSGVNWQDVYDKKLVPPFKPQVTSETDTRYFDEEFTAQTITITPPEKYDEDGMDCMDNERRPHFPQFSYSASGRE

[10] = target: T6, AKT2-NL (Homo sapiens, UniProt P31751); experiment: Bioluminescent imaging of AKT2-NL localization in HEK293T cells; type: cell-based; conditions: 2 h treatment, compared to DMSO
T6 construct: full-length versions of AKT1, AKT2, and AKT3, were separately subcloned into pNLF1-N or pNLF1-C vectors; expressed in transfected cells; host or cells: HEK293T
T6 sequence (P31751 whole entry): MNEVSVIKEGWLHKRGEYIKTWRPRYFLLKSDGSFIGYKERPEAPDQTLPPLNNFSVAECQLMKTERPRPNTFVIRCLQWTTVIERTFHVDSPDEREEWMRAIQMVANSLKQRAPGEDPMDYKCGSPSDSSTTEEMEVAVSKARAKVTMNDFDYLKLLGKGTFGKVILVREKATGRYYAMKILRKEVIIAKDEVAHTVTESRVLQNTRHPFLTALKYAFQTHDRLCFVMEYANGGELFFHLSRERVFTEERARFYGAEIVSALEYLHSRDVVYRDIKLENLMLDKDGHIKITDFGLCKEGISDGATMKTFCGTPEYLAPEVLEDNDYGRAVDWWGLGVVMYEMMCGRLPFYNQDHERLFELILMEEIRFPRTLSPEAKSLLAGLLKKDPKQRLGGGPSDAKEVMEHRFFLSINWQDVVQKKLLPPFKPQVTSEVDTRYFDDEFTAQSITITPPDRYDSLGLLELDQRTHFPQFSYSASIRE
Experimental: as §1

[11] = vs absence of BX-795, 0.2% DMSO

T1 sequence (Q9Y243 whole entry): as the sequence (Q9Y243 whole entry E17K) above, with K17E counted along it

Structure (SMILES): Cc1n[nH]c2ccc(-c3cncc(OCC(N)Cc4c[nH]c5ccccc45)c3)cc12 (stereo not shown) [A-443654]
Ki [1]: 16.6 ± 5.5 nM
IC50 [2]: 330 ± 10 nM
IC50 [3]: 20 ± 1 nM
AKT1-NL localization change [4]: induced movement of all isoforms to the cell membrane and nucleus
AKT3-NL localization change [5]: induced movement of all isoforms to the cell membrane and nucleus
Binding to Myr-AKT1-NL in the presence of 1 μM BX-795 [6, 11]: bound more weakly
Ki [7]: 32.7 ± 14.1 nM
Binding to AKT1-NL in the presence of 1 μM BX-795 [7, 11]: unaffected

Ki [8]: 5.85 ± 0.42 nM
Concentration at which some binding to Myr-AKT1-NL was observed ([6]; dose-response curve): higher than 1 μM
Concentration at which some binding to AKT1-NL was observed ([7]; dose-response curve): higher than 1 μM
Structure (SMILES): O=C(NCCCNc1nc(Nc2cccc(NC(=O)N3CCCC3)c2)ncc1I)c1cccs1 [BX-795]

Binding to AKT3-E17K-NL [9]: did not bind
AKT1-NL localization change [4]: did not induce AKT localization changes
AKT3-NL localization change [5]: did not induce AKT localization changes
AKT2-NL localization change [10]: did not induce AKT localization changes
Structure (SMILES): NC1(c2ccc(-c3nc4ccn5c(=O)[nH]nc5c4cc3-c3ccccc3)cc2)CCC1 [MK-2206]

Structure (SMILES): O=c1[nH]c2ccccc2n1C1CCN(Cc2ccc(-c3nc4cc5[nH]cnc5cc4nc3-c3ccccc3)cc2)CC1 [inhibitor VIII]
AKT1-NL localization change [4]: did not induce AKT localization changes
AKT3-NL localization change [5]: did not induce AKT localization changes
AKT2-NL localization change [10]: did not induce AKT localization changes

Structure (SMILES): CC(C)NC[C@@H](C(=O)N1CCN(c2ncnc3c2[C@H](C)C[C@H]3O)CC1)c1ccc(Cl)cc1 [ipatasertib]
AKT1-NL localization change [4]: induced the movement of some AKT to the cell membrane
